According to ChEMBL document CHEMBL5523719, “Structure-activity relationship study of new carbazole sulfonamide derivatives as anticancer agents with dual-target mechanism” (Eur J Med Chem, 2024):
Active and inactive are the calls of the source. No cut-off for these calls is given here.

How the values were obtained:
Tubulin (Homo sapiens) [1] = biological target: T1, Tubulin (Homo sapiens) (UniProt P68371+Q9H4B7+P0DPH7+P68366+Q13509+Q71U36+P04350+Q3ZCM7+P07437+P68363+Q9BQE3+Q6PEY2+Q13885+Q9BVA1+Q9BUF5); test: Inhibition of microtubule assembly in human HepG2 cells assessed as disrupted microtubule network at 50 uM measured after 24 hrs incubation by anti-alpha-tubulin antibody (green) and Hoechst 33342 (blue) stained nuclei were obtained under microscopy; type: cell-based
MCF7 [2] = test: Induction of apoptosis in human MCF7 cells assessed as late apoptotic cells at 25 nM measured after 48 hrs by AnnexinV/PI double staining assays (reference value: 2.60%); type: functional
MCF7 [3] = test: Induction of cell cycle arrest in human MCF7 cells assessed as accumulation of cells at G0/G1 phase at 500 nM measured after 24 hrs by flow cytometry (reference value: 61.73%); type: functional
HMEC-1 [4] = test: Anti-migration activity in human HMEC-1 cells assessed as inhibition of cell migration at 5 nM measured after 48 hrs by Scratching assay; type: functional, cell-based
MCF7 [5] = test: Induction of apoptosis in human MCF7 cells assessed as viable cells at 25 nM measured after 48 hrs by AnnexinV/PI double staining assays (reference value: 91.20%); type: functional; conditions: read-out: Activity
MCF7 [6] = test: Induction of cell cycle arrest in human MCF7 cells assessed as increase in phosphorylation of histone H3 at […] by Western blot analysis; type: functional, cell-based; conditions: dose lower 6.25 µM
MCF7 [7] = test: Induction of apoptosis in human MCF7 cells assessed as necrotic cells at 6.25 nM measured after 48 hrs by AnnexinV/PI double staining assays (reference value: 0.89%); type: functional
HMEC-1 [8] = test: Anti-proliferative activity against human HMEC-1 cells measured after 48 hrs; type: functional, cell-based; conditions: HMEC-1, 48 h
MCF7 [9] = test: Induction of cell cycle arrest in human MCF7 cells assessed as accumulation of cells at G2/M phase at 500 nM measured after 24 hrs by flow cytometry (reference value: 22.84%); type: functional
MCF7 [10] = test: Induction of cell cycle arrest in human MCF7 cells assessed as accumulation of cells at G0/G1 phase at 25 nM measured after 24 hrs by flow cytometry (reference value: 61.73%); type: functional
Tubulin (Homo sapiens) [11] = biological target: T1, Tubulin (Homo sapiens); test: In vitro inhibition of microtubule (unknown origin) assembly at 10 uM; type: protein-complex assay
MCF7 [12] = test: Induction of apoptosis in human MCF7 cells assessed as viable cells at 12.5 nM measured after 48 hrs by AnnexinV/PI double staining assays (reference value: 91.20%); type: functional; conditions: read-out: Activity
MCF7 [13] = test: Induction of apoptosis in human MCF7 cells assessed as early apoptotic cells at 6.25 nM measured after 48 hrs by AnnexinV/PI double staining assays (reference value: 5.32%); type: functional
MCF7 [14] = test: Induction of cell cycle arrest in human MCF7 cells assessed as accumulation of cells at G0/G1 phase at 100 nM measured after 24 hrs by flow cytometry (reference value: 61.73%); type: functional
MCF7 [15] = test: Induction of apoptosis in human MCF7 cells assessed as necrotic cells at 12.5 nM measured after 48 hrs by AnnexinV/PI double staining assays (reference value: 0.89%); type: functional
MCF7 [16] = test: Induction of cell cycle arrest in human MCF7 cells assessed as accumulation of cells at G2/M phase at 100 nM measured after 24 hrs by flow cytometry (reference value: 22.84%); type: functional
MCF7 [17] = test: Induction of cell cycle arrest in human MCF7 cells assessed as accumulation of cells at G0/G1 phase at 4 nM measured after 24 hrs by flow cytometry (reference value: 61.73%); type: functional
MCF7 [18] = test: Induction of apoptosis in human MCF7 cells assessed as early apoptotic cells at 12.5 nM measured after 48 hrs by AnnexinV/PI double staining assays (reference value: 5.32%); type: functional
MIA PaCa-2 = test: Antiproliferation activity against human MIA PaCa-2 cells measured after 72 hrs incubation by MTT assay; type: functional, cell-based; conditions: MIA PaCa-2, 72 h
MCF7 [19] = test: Induction of apoptosis in human MCF7 cells assessed as necrotic cells at 50 nM measured after 48 hrs by AnnexinV/PI double staining assays (reference value: 0.89%); type: functional
HMEC-1 [20] = test: Angiogenic activity against human HMEC-1 cells assessed as decrease in vascular area measured after 48 hrs by Endothelial tube formation assay; type: functional, cell-based; conditions: dose 1-100 nM
MCF7 [21] = test: Induction of apoptosis in human MCF7 cells assessed as viable cells at 50 nM measured after 48 hrs by AnnexinV/PI double staining assays (reference value: 91.20%); type: functional; conditions: read-out: Activity
MCF7 [22] = test: Induction of apoptosis in human MCF7 cells assessed as karyorrhexis at 5 nM measured after 24 hrs by fluorescent microscopy; type: functional
MCF7 [23] = test: Antiproliferation activity against human MCF7 cells measured after 72 hrs incubation by MTT assay; type: functional, cell-based; conditions: MCF7, 72 h
L02 = test: Antiproliferation activity against human L02 cells measured after 72 hrs incubation by MTT assay; type: functional, cell-based; conditions: L02, 72 h
MCF7 [24] = test: Induction of apoptosis in human MCF7 cells assessed as multinuclear cells at 5 nM measured after 24 hrs by fluorescent microscopy; type: functional
NCI/ADR-RES = test: Antiproliferation activity against human MCF7/ADR cells measured after 72 hrs incubation by MTT assay; type: functional, cell-based
MCF7 [25] = test: Induction of cell cycle arrest in human MCF7 cells assessed as accumulation of cells at G2/M phase at 4 nM measured after 24 hrs by flow cytometry (reference value: 22.84%); type: functional
[26] = biological target: Tubulin beta (Homo sapiens) (UniProt P68371+Q9H4B7+Q13509+P04350+Q3ZCM7+P07437+Q13885+Q9BVA1+Q9BUF5+A6NNZ2); test: Binding affinity to beta-tubulin colchicine binding site in human MCF7 cells assessed as inhibition of EBI-beta-tubulin adduct band formation preincubated for 2 hrs followed by EBI addition measured after 2 hrs by EBI competition based Western blotting analysis; type: cell-based; conditions: dose 12.5-100 nM
MCF7 [27] = test: Induction of apoptosis in human MCF7 cells assessed as necrotic cells at 25 nM measured after 48 hrs by AnnexinV/PI double staining assays (reference value: 0.89%); type: functional
MCF7 [28] = test: Induction of cell cycle arrest in human MCF7 cells assessed as increase in cyclin B1 protein expression at […] by Western blot analysis; type: functional, cell-based; conditions: dose lower 6.25 µM
Tubulin (Homo sapiens) [29] = biological target: T1, Tubulin (Homo sapiens); test: Inhibition of microtubule assembly in human MCF7 cells assessed as disrupted microtubule network at 50 uM measured after 24 hrs incubation by anti-alpha-tubulin antibody (green) and Hoechst 33342 (blue) stained nuclei were obtained under microscopy; type: cell-based
NCI-H460 = test: Antiproliferation activity against human NCI-H460 cells measured after 72 hrs incubation by MTT assay; type: functional, cell-based; conditions: NCI-H460, 72 h
MCF7 [30] = test: Induction of apoptosis in human MCF7 cells assessed as viable cells at 6.25 nM measured after 48 hrs by AnnexinV/PI double staining assays (reference value: 91.20%); type: functional; conditions: read-out: Activity
MCF7 [31] = test: Induction of cell cycle arrest in human MCF7 cells assessed as accumulation of cells at G2/M phase at 25 nM measured after 24 hrs by flow cytometry (reference value: 22.84%); type: functional
KB = test: Antiproliferation activity against human KB cells measured after 72 hrs incubation by MTT assay; type: functional, cell-based
MCF7 [32] = test: Induction of apoptosis in human MCF7 cells assessed as late apoptotic cells at 12.5 nM measured after 48 hrs by AnnexinV/PI double staining assays (reference value: 2.60%); type: functional
MCF7 [33] = test: Induction of apoptosis in human MCF7 cells assessed as early apoptotic cells at 50 nM measured after 48 hrs by AnnexinV/PI double staining assays (reference value: 5.32%); type: functional
MCF7 [34] = test: Induction of apoptosis in human MCF7 cells assessed as late apoptotic cells at 50 nM measured after 48 hrs by AnnexinV/PI double staining assays (reference value: 2.60%); type: functional
MCF7 [35] = test: Induction of apoptosis in human MCF7 cells assessed as late apoptotic cells at 6.25 nM measured after 48 hrs by AnnexinV/PI double staining assays (reference value: 2.60%); type: functional
MCF7 [36] = test: Induction of apoptosis in human MCF7 cells assessed as early apoptotic cells at 25 nM measured after 48 hrs by AnnexinV/PI double staining assays (reference value: 5.32%); type: functional
MDA-MB-231 = test: Antiproliferation activity against human MDA-MB-231 cells measured after 72 hrs incubation by MTT assay; type: functional, cell-based; conditions: MDA-MB-231, 72 h

COc1cc(NS(=O)(=O)c2ccc3c(c2)c2ccc(O)cc2n3C)c(OC)cc1Cl
inhibition (Tubulin (Homo sapiens) [1]): Active | Activity (MCF7 [2]): 13.75% | Activity (MCF7 [3]): 3.82% | inhibition (HMEC-1 [4]): Active | viability at 0.025 µM (MCF7 [5]): 36.8% | Activity (MCF7 [6]): Dose-Dependent Effect | Activity (MCF7 [7]): 0.05% | IC50 (HMEC-1 [8]): 6.42 nM | Activity (MCF7 [9]): 50.6% | Activity (MCF7 [10]): 6.65% | inhibition (Tubulin (Homo sapiens) [11]): Active | viability at 0.0125 µM (MCF7 [12]): 49.2% | Activity (MCF7 [13]): 34.89% | Activity (MCF7 [14]): 3.93% | Activity (MCF7 [15]): 0.06% | Activity (MCF7 [16]): 17.8% | Activity (MCF7 [17]): 37.05% | Activity (MCF7 [18]): 43.24% | IC50 (MIA PaCa-2): 0.81 nM | Activity (MCF7 [19]): 0.07% | Activity (HMEC-1 [20]): Dose-Dependent Effect | viability at 0.05 µM (MCF7 [21]): 46.3% | Activity (MCF7 [22]): 42.87% | IC50 (MCF7 [23]): 24.3 nM | IC50 (L02): 53.7 nM | Activity (MCF7 [24]): 46.27% | IC50 (NCI/ADR-RES): 7.56 nM | Activity (MCF7 [25]): 17.8% | Activity [26]: Active | Activity (MCF7 [27]): 0.06% | Activity (MCF7 [28]): Dose-Dependent Effect | inhibition (Tubulin (Homo sapiens) [29]): Active | IC50 (NCI-H460): 12.4 nM | viability at 0.00625 µM (MCF7 [30]): 56.2% | Activity (MCF7 [31]): 17.8% | IC50 (KB): 9.37 nM | Activity (MCF7 [32]): 7.54% | Activity (MCF7 [33]): 42.87% | Activity (MCF7 [34]): 10.8% | Activity (MCF7 [35]): 8.89% | Activity (MCF7 [36]): 49.44% | IC50 (MDA-MB-231): 5.19 nM
